# Laboratory results reported in ChEMBL document CHEMBL1201862, “PubChem BioAssay data set” (2004).
#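 All cell lines were grown in 96-well plates and treated with compound for 48 hours. Abbreviation: GI50, concentration required for 50% inhibition of growth.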 Active and inactive are the calls of the source. Rule as the data show it: active = GI50 up to about 1.1 µM and inactive = higher.
# Key:
# Assay in all cases: DTP human tumour cell line panel, 48 h
# 786-0 = tested on: 786-0
# A498 = tested on: A498
# A549 = tested on: A549
# ACHN = tested on: ACHN
# CAKI-1 = tested on: CAKI-1
# CCRF-CEM = tested on: CCRF-CEM
# COLO 205 = tested on: COLO 205
# DLD-1 = tested on: DLD-1
# DMS-114 = tested on: DMS-114
# DMS-273 = tested on: DMS-273
# EKVX = tested on: EKVX
# HCT-116 = tested on: HCT-116
# HCT-15 = tested on: HCT-15
# HL-60 = tested on: HL-60
# HOP-18 = tested on: HOP-18
# HOP-62 = tested on: HOP-62
# HOP-92 = tested on: HOP-92
# HT-29 = tested on: HT-29
# IGROV-1 = tested on: IGROV-1
# K562 = tested on: K562
# KM12 = tested on: KM12
# LOX IMVI = tested on: LOX IMVI
# LXFL 529 = tested on: LXFL 529
# M14 = tested on: M14
# M19-MEL = tested on: M19-MEL
# MOLT-4 = tested on: MOLT-4
# Malme-3M = tested on: Malme-3M
# NCI-H23 = tested on: NCI-H23
# NCI-H460 = tested on: NCI-H460
# NCI-H522 = tested on: NCI-H522
# OVCAR-3 = tested on: OVCAR-3
# OVCAR-4 = tested on: OVCAR-4
# OVCAR-5 = tested on: OVCAR-5
# OVCAR-8 = tested on: OVCAR-8
# RXF 393 = tested on: RXF 393
# SF-268 = tested on: SF-268
# SF-295 = tested on: SF-295
# SF-539 = tested on: SF-539
# SK-MEL-28 = tested on: SK-MEL-28
# SK-MEL-2 = tested on: SK-MEL-2
# SK-MEL-5 = tested on: SK-MEL-5
# SK-OV-3 = tested on: SK-OV-3
# SN12C = tested on: SN12C
# SNB-19 = tested on: SNB-19
# SNB-75 = tested on: SNB-75
# SNB-78 = tested on: SNB-78
# SR = tested on: SR
# SW-620 = tested on: SW-620
# TK-10 = tested on: TK-10
# U-251 = tested on: U-251
# UACC-257 = tested on: UACC-257
# UACC-62 = tested on: UACC-62
# UO-31 = tested on: UO-31
# XF498 = tested on: XF498
# HCC 2998 = tested on: HCC 2998
# KM-20L2 = tested on: KM-20L2
# NCI-H226 = tested on: NCI-H226
# RPMI-8226 = tested on: RPMI-8226
# RXF 631 = tested on: RXF 631
smiles,measurement,setting,value
O=C1NC2(CCCCC2)C2=C1CCCCC2,GI50,786-0,> 100 µM (inactive)
same,GI50,A498,> 100 µM (inactive)
same,GI50,A549,> 100 µM (inactive)
same,GI50,ACHN,> 100 µM (inactive)
same,GI50,CAKI-1,> 100 µM (inactive)
same,GI50,CCRF-CEM,> 100 µM (inactive)
same,GI50,COLO 205,> 100 µM (inactive)
same,GI50,DLD-1,> 100 µM (inactive)
same,GI50,DMS-114,> 100 µM (inactive)
same,GI50,DMS-273,> 100 µM (inactive)
same,GI50,EKVX,> 100 µM (inactive)
same,GI50,HCT-116,> 100 µM (inactive)
same,GI50,HCT-15,> 100 µM
same,GI50,HL-60,> 100 µM (inactive)
same,GI50,HOP-18,> 100 µM (inactive)
same,GI50,HOP-62,> 100 µM (inactive)
same,GI50,HOP-92,> 100 µM (inactive)
same,GI50,HT-29,> 100 µM (inactive)
same,GI50,IGROV-1,> 100 µM (inactive)
same,GI50,K562,> 100 µM (inactive)
same,GI50,KM12,> 100 µM (inactive)
same,GI50,LOX IMVI,> 100 µM (inactive)
same,GI50,LXFL 529,> 100 µM (inactive)
same,GI50,M14,> 100 µM (inactive)
same,GI50,M19-MEL,> 100 µM (inactive)
same,GI50,MOLT-4,> 100 µM (inactive)
same,GI50,Malme-3M,> 100 µM (inactive)
same,GI50,NCI-H23,> 100 µM (inactive)
same,GI50,NCI-H460,> 100 µM (inactive)
same,GI50,NCI-H522,> 100 µM (inactive)
same,GI50,OVCAR-3,> 100 µM (inactive)
same,GI50,OVCAR-4,> 100 µM (inactive)
same,GI50,OVCAR-5,> 100 µM (inactive)
same,GI50,OVCAR-8,> 100 µM (inactive)
same,GI50,RXF 393,> 100 µM (inactive)
same,GI50,SF-268,> 100 µM (inactive)
same,GI50,SF-295,> 100 µM (inactive)
same,GI50,SF-539,> 100 µM (inactive)
same,GI50,SK-MEL-28,> 100 µM (inactive)
same,GI50,SK-MEL-2,> 100 µM (inactive)
same,GI50,SK-MEL-5,> 100 µM (inactive)
same,GI50,SK-OV-3,> 100 µM (inactive)
same,GI50,SN12C,> 100 µM (inactive)
same,GI50,SNB-19,> 100 µM (inactive)
same,GI50,SNB-75,> 100 µM (inactive)
same,GI50,SNB-78,> 100 µM (inactive)
same,GI50,SR,> 100 µM (inactive)
same,GI50,SW-620,> 100 µM (inactive)
same,GI50,TK-10,> 100 µM (inactive)
same,GI50,U-251,> 100 µM (inactive)
same,GI50,UACC-257,> 100 µM (inactive)
same,GI50,UACC-62,> 100 µM (inactive)
same,GI50,UO-31,> 100 µM (inactive)
same,GI50,XF498,> 100 µM (inactive)
COc1ccc2c(C(=O)O)cc3ccccc3c2c1OC,GI50,786-0,15.7 µM (inactive)
same,GI50,A498,18.8 µM (inactive)
same,GI50,A549,30 µM (inactive)
same,GI50,ACHN,16.3 µM (inactive)
same,GI50,CCRF-CEM,24.8 µM (inactive)
same,GI50,COLO 205,22.1 µM (inactive)
same,GI50,DLD-1,30.9 µM (inactive)
same,GI50,DMS-114,17.7 µM (inactive)
same,GI50,DMS-273,23.5 µM (inactive)
same,GI50,EKVX,20.1 µM (inactive)
same,GI50,HCC 2998,21.2 µM (inactive)
same,GI50,HCT-116,18.6 µM (inactive)
same,GI50,HL-60,27.1 µM (inactive)
same,GI50,HOP-18,15.5 µM (inactive)
same,GI50,HOP-62,69.3 µM (inactive)
same,GI50,HOP-92,21.9 µM (inactive)
same,GI50,HT-29,21.6 µM (inactive)
same,GI50,K562,24.2 µM (inactive)
same,GI50,KM-20L2,22.8 µM (inactive)
same,GI50,KM12,18.3 µM (inactive)
same,GI50,LOX IMVI,17.6 µM (inactive)
same,GI50,LXFL 529,17.1 µM (inactive)
same,GI50,M14,16.4 µM (inactive)
same,GI50,M19-MEL,21.3 µM (inactive)
same,GI50,MOLT-4,32.9 µM (inactive)
same,GI50,Malme-3M,21.9 µM (inactive)
same,GI50,NCI-H226,24.4 µM (inactive)
same,GI50,NCI-H23,22.2 µM (inactive)
same,GI50,NCI-H522,13.8 µM (inactive)
same,GI50,OVCAR-3,16.6 µM (inactive)
same,GI50,OVCAR-5,19.1 µM (inactive)
same,GI50,OVCAR-8,22 µM (inactive)
same,GI50,RPMI-8226,31 µM (inactive)
same,GI50,RXF 393,15.2 µM (inactive)
same,GI50,SF-268,19.4 µM (inactive)
same,GI50,SF-295,47 µM (inactive)
same,GI50,SF-539,23.7 µM (inactive)
same,GI50,SK-MEL-28,18.5 µM (inactive)
same,GI50,SK-MEL-2,30.5 µM (inactive)
same,GI50,SK-OV-3,38.5 µM (inactive)
same,GI50,SN12C,20.9 µM (inactive)
same,GI50,SNB-19,43.6 µM (inactive)
same,GI50,SNB-75,28.4 µM (inactive)
same,GI50,SNB-78,16.9 µM (inactive)
same,GI50,SR,30.5 µM (inactive)
same,GI50,SW-620,19.4 µM (inactive)
same,GI50,TK-10,19.1 µM (inactive)
same,GI50,U-251,40.9 µM (inactive)
same,GI50,UACC-257,17.1 µM (inactive)
same,GI50,UACC-62,15.2 µM (inactive)
same,GI50,UO-31,17.2 µM (inactive)
same,GI50,XF498,15.8 µM (inactive)
COc1ccc(C(=O)O)c2c(=O)c3cccnc3[nH]c12,GI50,A498,> 100 µM (inactive)
same,GI50,A549,> 100 µM (inactive)
same,GI50,ACHN,> 100 µM (inactive)
same,GI50,CCRF-CEM,> 100 µM (inactive)
same,GI50,DMS-114,> 100 µM (inactive)
same,GI50,EKVX,> 100 µM (inactive)
same,GI50,HCT-116,> 100 µM (inactive)
same,GI50,HL-60,> 100 µM (inactive)
same,GI50,HOP-62,> 100 µM (inactive)
same,GI50,HOP-92,> 100 µM (inactive)
same,GI50,HT-29,> 100 µM (inactive)
same,GI50,IGROV-1,> 100 µM (inactive)
same,GI50,KM-20L2,> 100 µM (inactive)
same,GI50,KM12,> 100 µM (inactive)
same,GI50,M14,> 100 µM (inactive)
same,GI50,M19-MEL,> 100 µM (inactive)
same,GI50,MOLT-4,> 100 µM (inactive)
same,GI50,NCI-H23,> 100 µM (inactive)
same,GI50,NCI-H460,> 100 µM (inactive)
same,GI50,NCI-H522,> 100 µM (inactive)
same,GI50,OVCAR-5,> 100 µM (inactive)
same,GI50,OVCAR-8,> 100 µM (inactive)
same,GI50,RXF 393,> 100 µM (inactive)
same,GI50,RXF 631,> 100 µM (inactive)
same,GI50,SF-295,> 100 µM (inactive)
same,GI50,SK-MEL-28,> 100 µM (inactive)
same,GI50,SK-OV-3,> 100 µM (inactive)
same,GI50,SNB-19,> 100 µM (inactive)
same,GI50,SNB-78,> 100 µM (inactive)
same,GI50,SR,> 100 µM (inactive)
same,GI50,TK-10,> 100 µM (inactive)
same,GI50,U-251,> 100 µM (inactive)
same,GI50,UACC-257,> 100 µM (inactive)
same,GI50,UACC-62,46.1 µM (inactive)
same,GI50,UO-31,> 100 µM (inactive)
